{
  "source": "patent US9353156B2",
  "about": "“Oligopeptide compounds and uses thereof” (Cytovation AS, priority 2010, dated 2016)",
  "key": {"[1]": {"test_system": "normal human forskin fibroblasts (HFF1)", "conditions": "20 μg/ml, exposure for 90 minutes", "experimental": "MTT is a yellowish solution and is converted to water-insoluble MTT-formazan of dark blue colour by mitochondrial dehydrogenases of living cells. The blue crystals are solubilized with acidifies isopropanol and the intensity is measured colorimetrically at a wavelength of 570 nm (protocol for the MTT assay was used according to the manufacturer's instructions). Using a MTT cell viability assay, a comparison was made between normal human forskin fibroblasts (HFF1) and three cancer cell lines T986 (neuroblastoma cells), GaMG (glioblastoma), and A172 (glioblastoma)."}, "[2]": {"test_system": "142 cells, HFF1 cells, 143 carcinoma cells, HOS sarcoma cell line (FIG. 5)", "test": "LIVE/DEAD kit, fluorescence microscopy of monolayers (FIG. 5, text)", "assay_type": "cell-based", "conditions": "10 μg/ml of peptide", "from_the_text": "The LIVE/DEAD® Viability/Cytotoxicity kit employs a fluorescent dye to assess mammalian cell viability. Calcein AM and ethidium homodimer-1 (EthD-1) are found to be optimal dyes for this purpose. […] cells are distinguished from dead cells by the presence of intracellular esterase activity, determined by enzymatic conversion of non-fluorescen calcein AM to intensely fluorescent calcein. Calcein, which is a polyanionic dye, is well retained inside living cells producing an intense uniform green fluorescence. EthD-1 is excluded by intact membranes of viable cells, but it will enter cells with damaged cell membrane and bind to nucleic acids, producing a bright red fluorescence in dead cells. The protocol for using the live/dead kit is supplied by the manufacturer.\nTo quantify the cytotoxic action of Peptide 1, 20 000 cells were placed in 24 well multiwell dishes. […] After 1-3-6 hrs the cellular viability was assessed using the Molecular Probes LIVE/DEAD kit. […]\nThe cells were then observed using an inverted fluorescence microscope (Nikon Eclipse 2000E, Tokyo, Japan) equipped with FITC (green fluorescence) and TRITC (red fluorescence) filter optics. […] The proportion of viable cells (cells with green fluorescence) and the proportion of dead cells (red fluorescence) where then assessed by counting 100 cells. […]"}},
  "data": [
    {"substance": "Ac-YGRKKRRQRRRGKTLRVAKAIYKRYIE-NH2 [Peptide 1]", "values": [
      {"measurement": "surviving fraction", "setting": "[1]", "value": 58, "unit": "%"},
      {"measurement": "cytotoxic action (red cells)", "setting": "[2]", "value": "slight cytotoxic action"}
    ]}
  ]
}
